Results reported in PMC5775428, “Towards an experimental classification system for membrane active peptides” (Scientific Reports, 2018).
Read-outs that look alike come from different tables or passages of the source.

What was measured:
[1] = cited from earlier work
[2] = cited from earlier work; remark: listed apart in the source
[3] = cited from earlier work; remark: listed apart in the source
[4] = cited from earlier work; remark: listed apart in the source
[5] = cited from earlier work; remark: listed apart in the source
[6] = cited from earlier work; remark: listed apart in the source
[7] = cited from earlier work; remark: listed apart in the source
[8] = cited from earlier work; remark: listed apart in the source
[9] = cited from earlier work; remark: listed apart in the source
[10] = cited from earlier work; remark: listed apart in the source
Erwinia carotovora = settings: Erwinia carotovora
Method in brief: (§1)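 Broth microdilution MICs followed CLSI M7-A10 for bacteria, with peptides tested at 0.5 to 256 μM. MIC was the lowest concentration at which no cells were seen by optical microscopy. Three biological repeats, each with two technical replicates.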

Bacillus subtilis = settings: Bacillus subtilis
Method in brief: as §1

Xanthomonas campestris = test system: Xanthomonas campestris
Method in brief: as §1

[11] = test system: Pseudomonas syringae pv. tabaci; settings: Pseudomonas syringae pv. tabaci
Method in brief: as §1

Pseudomonas aeruginosa = settings: Pseudomonas aeruginosa
Method in brief: as §1

Bacillus cereus = test system: Bacillus cereus
Method in brief: as §1

Escherichia coli = settings: Escherichia coli
Method in brief: as §1

Cryptococcus neoformans = settings: Cryptococcus neoformans
Method in brief: (§2)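 MICs determined per CLSI M7-A10 (bacteria) and M27-A3 (yeasts) protocols, peptides tested at 0.5 to 256 μM. MIC taken as the lowest concentration with no cells seen by optical microscopy; three biological repeats with 2 technical replicates each.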

Candida albicans = settings: Candida albicans
Method in brief: as §2

Staphylococcus aureus = settings: Staphylococcus aureus
Method in brief: as §1

Substance: Syphaxin
- Hv sharp component, DMPC LUVs [1]: 383000
- H sharp component, 2:1 DMPC:DMPG LUVs [2]: 197 kcal/mol
- H broad component, DMPC LUVs [3]: 2260 kcal/mol
- Tm broad component, 2:1 DMPC:DMPG LUVs [4]: 25.4 °C
- Tm sharp component, 2:1 DMPC:DMPG LUVs [5]: 22.8 °C
- H broad component, 2:1 DMPC:DMPG LUVs [6]: 3240 kcal/mol
- Tm sharp component, DMPC LUVs [7]: 21.9 °C
- Tm broad component, DMPC LUVs [8]: 25.4 °C
- Hv broad component, DMPC LUVs [9]: 120000
- Hv broad component, 2:1 DMPC:DMPG LUVs [10]: 101000

Substance: Penetratin
- Hv sharp component, DMPC LUVs [1]: 1.01e+06
- H sharp component, 2:1 DMPC:DMPG LUVs [2]: 3360 kcal/mol
- H broad component, DMPC LUVs [3]: 2890 kcal/mol
- Tm broad component, 2:1 DMPC:DMPG LUVs [4]: 26.6 °C
- Tm sharp component, 2:1 DMPC:DMPG LUVs [5]: 24.5 °C
- H broad component, 2:1 DMPC:DMPG LUVs [6]: 2560 kcal/mol
- Tm sharp component, DMPC LUVs [7]: 24.2 °C
- Tm broad component, DMPC LUVs [8]: 23.5 °C
- Hv broad component, DMPC LUVs [9]: 295000
- Hv broad component, 2:1 DMPC:DMPG LUVs [10]: 116000

Substance: GSLHGFMYKYLKNMVLTLF [At01]
- Minimum inhibitory concentration (Erwinia carotovora; CLSI M7-A10, triplicate 1): 256 µM
- Minimum inhibitory concentration, Average (Erwinia carotovora; average of triplicates): 256.0 µM
- Minimum inhibitory concentration (Erwinia carotovora; triplicate 2): 256 µM
- Minimum inhibitory concentration (Erwinia carotovora; triplicate 3): 256 µM
- Minimum inhibitory concentration (Bacillus subtilis; CLSI M7-A10, triplicate 1): 16 µM
- Minimum inhibitory concentration, Average (Bacillus subtilis; average of triplicates): 16.0 µM
- Minimum inhibitory concentration (Bacillus subtilis; triplicate 2): 16 µM
- Minimum inhibitory concentration (Bacillus subtilis; triplicate 3): 16 µM
- Minimum inhibitory concentration (Xanthomonas campestris; CLSI M7-A10, triplicate 1): 128 µM
- Minimum inhibitory concentration, Average (Xanthomonas campestris; average of triplicates): 128.0 µM
- Minimum inhibitory concentration (Xanthomonas campestris; triplicate 2): 128 µM
- Minimum inhibitory concentration (Xanthomonas campestris; triplicate 3): 128 µM
- Minimum inhibitory concentration ([11]; CLSI M7-A10, triplicate 1): 16 µM
- Minimum inhibitory concentration, Average ([11]; average of triplicates): 16.0 µM
- Minimum inhibitory concentration ([11]; triplicate 2): 16 µM
- Minimum inhibitory concentration ([11]; triplicate 3): 16 µM
- Minimum inhibitory concentration (Pseudomonas aeruginosa; CLSI M7-A10, triplicate 1): 32 µM
- Minimum inhibitory concentration, Average (Pseudomonas aeruginosa; average of triplicates): 32.0 µM
- Minimum inhibitory concentration (Pseudomonas aeruginosa; triplicate 2): 32 µM
- Minimum inhibitory concentration (Pseudomonas aeruginosa; triplicate 3): 32 µM
- Minimum inhibitory concentration (Bacillus cereus): 128 µM
- Minimum inhibitory concentration, Average (Bacillus cereus): 128.0 µM
- Minimum inhibitory concentration (Escherichia coli; CLSI M7-A10, triplicate 1): 64 µM
- Minimum inhibitory concentration, Average (Escherichia coli; average of triplicates): 64.0 µM
- Minimum inhibitory concentration (Escherichia coli; triplicate 2): 64 µM
- Minimum inhibitory concentration (Escherichia coli; triplicate 3): 64 µM
- Minimum inhibitory concentration (Cryptococcus neoformans; CLSI M27-A3, triplicate 1): 16 µM
- Minimum inhibitory concentration, Average (Cryptococcus neoformans; average of triplicates): 16.0 µM
- Minimum inhibitory concentration (Cryptococcus neoformans; triplicate 2): 16 µM
- Minimum inhibitory concentration (Cryptococcus neoformans; triplicate 3): 16 µM
- Minimum inhibitory concentration (Candida albicans; CLSI M27-A3, 0.5 to 256 μM tested, triplicate 1, also published in ref 7): 16 µM
- Minimum inhibitory concentration, Average (Candida albicans; average of triplicates): 16.0 µM
- Minimum inhibitory concentration (Candida albicans; triplicate 2): 16 µM
- Minimum inhibitory concentration (Candida albicans; triplicate 3): 16 µM
- Minimum inhibitory concentration (Staphylococcus aureus; CLSI M7-A10, triplicate 1): 16 µM
- Minimum inhibitory concentration, Average (Staphylococcus aureus; average of triplicates): 16.0 µM
- Minimum inhibitory concentration (Staphylococcus aureus; triplicate 2): 16 µM
- Minimum inhibitory concentration (Staphylococcus aureus; triplicate 3): 16 µM
